≈ marks a conversion by molar mass, not a printed value. Entries after “also recorded” stand apart in the source; their conditions may differ.

Assay [1] has as its target T1, pancreatic lipase (Sus scrofa, UniProt P00591).
T1 sequence (P00591 1-450): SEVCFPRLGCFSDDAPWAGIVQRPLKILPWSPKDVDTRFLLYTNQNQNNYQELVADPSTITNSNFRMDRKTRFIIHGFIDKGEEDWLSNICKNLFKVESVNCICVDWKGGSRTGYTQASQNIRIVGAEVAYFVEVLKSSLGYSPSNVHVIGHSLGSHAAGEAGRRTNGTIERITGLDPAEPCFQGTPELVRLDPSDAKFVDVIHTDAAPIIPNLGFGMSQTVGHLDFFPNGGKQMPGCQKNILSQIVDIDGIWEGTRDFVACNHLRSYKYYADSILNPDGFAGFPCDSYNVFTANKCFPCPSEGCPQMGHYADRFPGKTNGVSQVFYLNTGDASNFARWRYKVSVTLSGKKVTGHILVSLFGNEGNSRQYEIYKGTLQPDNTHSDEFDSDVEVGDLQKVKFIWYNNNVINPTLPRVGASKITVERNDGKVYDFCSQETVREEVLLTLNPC
The assay can be described thus: Circular dichroism measurement of secondary structure. More on the design: species or system porcine. The following applies: for β-Turn (%) of pancreatic lipase / α-Helix (%) of pancreatic lipase / β-Sheet (%) of pancreatic lipase / Random Coil (%) of pancreatic lipase: lipase:compound molar ratio 1:1, 37 °C, 5 min; for β-Turn (%) of pancreatic lipase: lipase alone 14.8; for α-Helix (%) of pancreatic lipase: lipase alone 17.7; for β-Sheet (%) of pancreatic lipase: lipase alone 25.4; for Random Coil (%) of pancreatic lipase: lipase alone 42.1; for decrease of β-sheet of pancreatic lipase / increase of α-helix content of pancreatic lipase: relative to pancreatic lipase alone. (CD spectra are sensitive to the conformation of chiral molecules.)

Assay [2] deals with T1, pancreatic lipase. The experiment in a line: Enzyme inhibition kinetics (Lineweaver-Burk analysis). The class given is biochemical, porcine. The settings on record: for inhibition type: Lineweaver-Burk plots, Vmax unchanged; for reversibility of inhibition: plots of v versus enzyme concentration.
Assay [3] deals with T1, pancreatic lipase. The assay can be described thus: Fluorescence spectrometry (tryptophan fluorescence quenching, Stern-Volmer). The settings on record: for ΔH (enthalpy) / ΔS (entropy change): Van't Hoff, 298 and 310 K.
Assay [4] deals with T1, pancreatic lipase. The experiment in a line: Affinity screening by ultrafiltration coupled with HPLC. The class given is binding, porcine. The settings on record: from change of HPLC peak area at 425 nm, turmeric extract, versus heat-inactivated enzyme.
Assay [5] deals with pancreatic lipase. The following applies: cited from earlier work.
For assay [6], the target named is T2, pancreatic lipase from porcine pancreas type II (Sus scrofa, UniProt P00591).
T2 sequence (P00591 1-450): T1 sequence (P00591 1-450)
The assay can be described thus: Pancreatic lipase inhibition in vitro (p-nitrophenyl butyrate hydrolysis, absorbance 410 nm). The class given is biochemical. The following applies: curcuminoid chemical standards.

Consider `COc1cc(/C=C/C(=O)CC(=O)/C=C/c2ccc(O)c(OC)c2)ccc1O` [curcumin, Curcumin], for which, in assay [1], the “β-Turn (%) of pancreatic lipase” value is reported as 15.7%, the “α-Helix (%) of pancreatic lipase” value was determined as 34.3%, the “β-Sheet (%) of pancreatic lipase” value is recorded as 15.3% and the “Random Coil (%) of pancreatic lipase” value came out at 34.7%. Also, in assay [1], the “decrease of β-sheet of pancreatic lipase” value is 39.76% and the “increase of α-helix content of pancreatic lipase” value came to 93.78%. Further, in assay [2], the inhibition type entry is recorded as “competitive inhibitors; also recorded: reversible competitive inhibition” and the reversibility of inhibition entry is given as “reversible”. Further, in assay [3], the “Ka (binding constant), bound stated” value is greater than 10000 L/mol; the “Kq, compared with maximum dynamic quenching constant” value is greater than 2e+10 M⁻¹ s⁻¹; the “binding sites” value was roughly 1; the “ΔH (enthalpy)” value was -33.88 ± 0.30 kJ/mol. Besides, the “ΔS (entropy change)” value in assay [3] is −23.99 ± 0.10 J·mol^−1·K. For the same molecule, in assay [3] (298 K), the “Kq (fluorescence-quenching rate constant)” value was 1.94 ± 0.10 ×10^12 L·mol^−1·s^−1, the “n (binding sites)” value came out at 1.14 ± 0.02 and the “ΔG (free energy)” value is -24.11 ± 0.13 kJ/mol. In assay [3] (310 K), the “Kq (fluorescence-quenching rate constant)” value was 4.28 ± 0.25 ×10^12 L·mol^−1·s^−1, the “n (binding sites)” value is recorded as 1.2 ± 0.02 and the “ΔG (free energy)” value was -26.44 ± 0.25 kJ/mol. Further, in assay [4], the “binding rate to pancreatic lipase” value is listed as 54.69%.
`O=C(/C=C/c1ccc(O)cc1)CC(=O)/C=C/c1ccc(O)cc1` [bisdemethoxycurcumin, Bisdemethoxycurcumin]: in assay [1], the “β-Turn (%) of pancreatic lipase” value amounted to 15.9%, the “α-Helix (%) of pancreatic lipase” value is recorded as 21.3%, the “β-Sheet (%) of pancreatic lipase” value is reported as 21.7% and the “decrease of β-sheet of pancreatic lipase” value is recorded as 14.57%. Also, in assay [2], the inhibition type result is listed as “competitive inhibitors; also recorded: reversible competitive inhibition” and the reversibility of inhibition entry is on record as “reversible”. Also, in assay [3], the “Ka (binding constant), bound stated” value was greater than 10000 L/mol; the “binding sites” value is on record as roughly 1; the “ΔS (entropy change)” value is reported as −14.33 ± 0.14 J·mol^−1·K. In addition, in assay [3] (298 K), the “Kq (fluorescence-quenching rate constant)” value was 1.6 ± 0.07 ×10^12 L·mol^−1·s^−1, the “n (binding sites)” value is recorded as 1.13 ± 0.03 and the “ΔG (free energy)” value is -22.91 ± 0.24 kJ/mol. The “ΔG (free energy)” value in assay [3] (310 K) was -25.02 ± 0.15 kJ/mol.
The term IC50 denotes the midpoint of a concentration-inhibition curve. Regarding `C=C(C)[C@@H]1CC[C@]2(C(=O)O[C@@H]3O[C@H](CO[C@@H]4O[C@H](CO)[C@@H](O[C@@H]5O[C@@H](C)[C@H](O)[C@@H](O)[C@H]5O)[C@H](O)[C@H]4O)[C@@H](O)[C@H](O)[C@H]3O)CC[C@]3(C)[C@H](C[C@H]4OC(=O)C[C@@H](O)[C@]5(C)[C@@H]4[C@@]3(C)CC[C@H]5C(=C)C)[C@@H]12` [chiisanoside], the IC50 in assay [5] is 740 mg/L (≈ 775 µM).
Broadly, the Ki is a measure of affinity in units of concentration, obtained from inhibition or displacement. `COc1cc(/C=C/C(O)=C/C(=O)/C=C/c2ccc(O)cc2)ccc1O` [demethoxycurcumin, Demethoxycurcumin]: in assay [1], the “β-Turn (%) of pancreatic lipase” value came to 16.5%, the “α-Helix (%) of pancreatic lipase” value came to 26.4%, the “β-Sheet (%) of pancreatic lipase” value is given as 16.9% and the “Random Coil (%) of pancreatic lipase” value was 40.2%. In assay [1], the “decrease of β-sheet of pancreatic lipase” value is given as 33.46% and the “increase of α-helix content of pancreatic lipase” value stood at 49.15%. The molecule further gave an IC50 in assay [6] of 3310 µM. Further, in assay [2], the inhibition type entry is “competitive inhibitors; also recorded: reversible competitive inhibition” and the reversibility of inhibition result was “reversible”. Also, in assay [2] (pancreatic lipase 5 mg/mL, p-nitrophenyl butyrate substrate, read-out: Ki (inhibition constant)), the Ki is 840 ± 40 µM. Further, in assay [3], the “Ka (binding constant), bound stated” value was greater than 10000 L/mol; the “Kq, compared with maximum dynamic quenching constant” value was greater than 2e+10 M⁻¹ s⁻¹; the “binding sites” value is roughly 1; the “ΔH (enthalpy)” value was -31.31 ± 0.22 kJ/mol. Also, the “ΔS (entropy change)” value in assay [3] is listed as −18.82 ± 0.09 J·mol^−1·K. Besides, in assay [3] (298 K), the “Kq (fluorescence-quenching rate constant)” value was 1.64 ± 0.13 ×10^12 L·mol^−1·s^−1, the “n (binding sites)” value is given as 1.12 ± 0.04 and the “ΔG (free energy)” value was -23.28 ± 0.14 kJ/mol. In addition, in assay [3] (310 K), the “Kq (fluorescence-quenching rate constant)” value was 3.61 ± 0.24 ×10^12 L·mol^−1·s^−1, the “n (binding sites)” value turned out to be 1.40 ± 0.01 and the “ΔG (free energy)” value is -25.48 ± 0.21 kJ/mol. Also, in assay [3] (excitation 280 nm), the “maximum emission peak of pancreatic lipase after addition (blueshift from 350 nm)” value was found to be 342 nm. For the same molecule, the “binding rate to pancreatic lipase” value in assay [4] is on record as 49.33%.

The values above are taken from PMC11314295, “Discovery of Curcuminoids as Pancreatic Lipase Inhibitors from Medicine-and-Food Homology Plants” (Nutrients, 2024).
